Series [1] concerns dry-paddy rice (Labell). Description: Visual growth study, phytotoxicity index, chemicals scattered 14 days after sowing. The note with it: 0.8 leaves stage, treated 14 days after sowing, 14 days after treatment, 0-100 scale, 4-(tert-butyl)benzoic acid 1000 g ai/ha in Examples, 0 in Comparative Examples, herbicide dose per label. The format is in vivo. The protocol: (§1) These containers were each kept standing on a water vat filled with a water pool from which water was supplied through the opening in the bottom. […] After 8 days from the chemical treatment and after 14 days from the chemical treatment, visual growth studies were conducted for sweet corn, sorghum and adzuki bean and for wheat, barley, dry-paddy rice, soybean, rapeseed and beet, respectively and the results are shown in Table 2 and Table 3.

Series [2] deals with soybean (Fukuyutaka). Description: Visual growth study, phytotoxicity index, chemicals scattered on the next day after sowing. On the procedure: (§2) A wettable powder containing 10% of 4-(tert-butyl)benzoic acid was prepared by blending pulverization of 10 parts of 4-(tert-butyl)benzoic acid, 2 parts of a sodium salt of naphthalenesulfonic acid-formalin condensation product, 2 parts of a polyoxyethylene alkyl ether, 30 parts of diatomaceous earth and 56 parts of clay by using a high-speed air-jet pulverizer.
(§3) These containers were each kept standing in a water vat and water supply for pooling was introduced through the hole opening at the bottom of the water vat.
(§4) For comparison, on the other hand, evaluation was made by conducting growth studies by growing sweet corn, wheat, dry-paddy rice, sorghum, soybean, adzuki bean and rapeseed under the same conditions as in the Examples excepting for the omission of scattering of 4-(tert-butyl)benzoic acid.

For series [3], the system named is sweet corn (Delicious 100). As to the kind of experiment: Visual growth study, phytotoxicity index, chemicals scattered 14 days after sowing. The note with it: 1.5 leaves stage, treated 14 days after sowing, 8 days after treatment, 0-100 scale, 4-(tert-butyl)benzoic acid 1000 g ai/ha in Examples, 0 in Comparative Examples, herbicide dose per label. The format is in vivo. The protocol:
as §1

Series [4] has as its system sweet corn (Delicious 100). Description: Visual growth study, phytotoxicity index, chemicals scattered on the next day after sowing. As to conditions: treated next day after sowing, 26 days after treatment, 0 = no growth inhibition, 100 = full dying, 4-(tert-butyl)benzoic acid 1000 g ai/ha in Examples, 0 in Comparative Examples, herbicide dose per label. On the procedure:
as §2, §3, §4

In a further series the test system is adzuki bean (Dainagon). As to the kind of experiment: Visual growth study, phytotoxicity index, chemicals scattered 14 days after sowing. Type of series: in vivo. The protocol: as §1
The subject of series [5] is dry-paddy rice (Labell). Description: Visual growth study, phytotoxicity index, chemicals scattered on the next day after sowing. Type of series: in vivo. The note with it: treated next day after sowing, 26 days after treatment, 0 = no growth inhibition, 100 = full dying, 4-(tert-butyl)benzoic acid 1000 g ai/ha in Examples, 0 in Comparative Examples, herbicide dose per label. The protocol: as §2, §3, §4

The test system of series [6] is wheat (Brigadier). As to conditions: in vivo. On the procedure:
as §2, §3, §4

Series [7] relates to wheat (Brigadier). Description: Visual growth study, phytotoxicity index, chemicals scattered 14 days after sowing. Type of series: in vivo. On the procedure:
as §1

Another series deals with rapeseed. The series is described as above. Type of series: in vivo. The protocol: as §1
For the next series, the system named is barley (Minori Rokujo). The description is as above. The note with it: in vivo. The protocol:
as §1

Series [8] concerns soybean (Fukuyutaka). The description is as above. Type of series: in vivo. The note with it: true leaf extraction stage, treated 14 days after sowing, 14 days after treatment, 0-100 scale, 4-(tert-butyl)benzoic acid 1000 g ai/ha in Examples, 0 in Comparative Examples, herbicide dose per label. The protocol: as §1
In another series the test system is beet (VIGIL). The series is described as above. The format is in vivo. The note with it: true leaf extraction stage, treated 14 days after sowing, 14 days after treatment, 0-100 scale, 4-(tert-butyl)benzoic acid 1000 g ai/ha in Examples, 0 in Comparative Examples, herbicide dose per label. The protocol: as §1
Another series has as its system sorghum (Funk's Hybrid). Description: Visual growth study, phytotoxicity index, chemicals scattered on the next day after sowing. The note with it: treated next day after sowing, 11 days after treatment, 0 = no growth inhibition, 100 = full dying, 4-(tert-butyl)benzoic acid 1000 g ai/ha in Examples, 0 in Comparative Examples, herbicide dose per label. On the procedure: as §2, §3, §4

The mark [9] stands for this setting: wheat, 2 leaves stage, treated 14 days after sowing, 14 days after treatment, 0-100 scale, 4-(tert-butyl)benzoic acid 1000 g ai/ha in Examples, 0 in Comparative Examples, herbicide dose per label.

Where a name gives a salt, the structure may show the parent alone. Read-outs that look alike come from different tables or passages of the source.

In the series on dry-paddy rice (Labell) [1], `COc1cc(OC)nc(Oc2cccc(Oc3nc(OC)cc(OC)n3)c2C(=O)O)n1` [compound 24, Bispyribac-sodium] had a Phytotoxicity index of 18. In the case of `Cn1nc(C(F)(F)F)c(CS(=O)(=O)C2=NOC(C)(C)C2)c1OC(F)F` [compound 11], in the series with soybean (Fukuyutaka) [2] (in vivo), the Phytotoxicity index is 20. As for `COC[C@H](C)N(C(=O)CCl)c1c(C)csc1C` [compound 15, Dimethenamide-P], in [3], the Phytotoxicity index stood at 20. Molecule `CS(=O)(=O)c1ccc(C(=O)C2C(=O)CCCC2=O)c([N+](=O)[O-])c1` [compound 16, Mesotrione] returned a Phytotoxicity index in [3] of 13.

As to `CCNc1nc(Cl)nc(NC(C)C)n1` [compound 3, Atrazine], in series [4], the Phytotoxicity index amounted to 15. In the series with adzuki bean (Dainagon) (in vivo), `Cn1nc(C(F)(F)F)c(CS(=O)(=O)C2=NOC(C)(C)C2)c1OC(F)F` [compound 27] registered a Phytotoxicity index of 25.

For the molecule `COC[C@H](C)N(C(=O)CCl)c1c(C)csc1C` [compound 2, Dimethenamide-P], in series [4], the Phytotoxicity index was determined as 33.

As to `CCNc1nc(Cl)nc(NC(C)C)n1` [compound 7, Atrazine], in the series with dry-paddy rice (Labell) [5], the Phytotoxicity index worked out at 35. Take `Cc1ccn2nc(S(=O)(=O)Nc3c(F)cccc3F)nc2n1` [compound 4, Flumetsulam]: in the series on wheat (Brigadier) [6], the Phytotoxicity index was determined as 13. `Cn1nc(C(F)(F)F)c(CS(=O)(=O)C2=NOC(C)(C)C2)c1OC(F)F` [compound 20] showed a Phytotoxicity index with wheat (Brigadier) [7] (in vivo) of 20. In the series with rapeseed (rapeseed, two paired leaves extraction stage, treated 14 days after sowing, 14 days after treatment, 0-100 scale, 4-(tert-butyl)benzoic acid 1000 g ai/ha in Examples, 0 in Comparative Examples, herbicide dose per label), `COC[C@H](C)N(C(=O)CCl)c1c(C)csc1C` [compound 29, Dimethenamide-P] returned a Phytotoxicity index of 10. In turn, `COC[C@H](C)N(C(=O)CCl)c1c(C)csc1C` [compound 10, Dimethenamide-P] displayed a Phytotoxicity index in the series on soybean (Fukuyutaka) [2] (soybean, treated next day after sowing, 26 days after treatment, 0 = no growth inhibition, 100 = full dying, 4-(tert-butyl)benzoic acid 1000 g ai/ha in Examples, 0 in Comparative Examples, herbicide dose per label) of 20. Turning to `COc1cc(OC)nc(Oc2cccc(Oc3nc(OC)cc(OC)n3)c2C(=O)O)n1` [compound 14, Bispyribac-sodium], the Phytotoxicity index in [3] was 45.

For the molecule `Cn1nc(C(F)(F)F)c(CS(=O)(=O)C2=NOC(C)(C)C2)c1OC(F)F` [compound 23], the Phytotoxicity index in the series with barley (Minori Rokujo) came out at 18.

For `CS(=O)(=O)c1ccc(C(=O)C2C(=O)CCCC2=O)c([N+](=O)[O-])c1` [compound 21, Mesotrione], the Phytotoxicity index in the series on wheat (Brigadier) [7] (setting [9]) was found to be 40.

The molecule `O=C(Nc1ccc(F)cc1F)c1cccnc1Oc1cccc(C(F)(F)F)c1` [compound 28, Diflufenican] returned a Phytotoxicity index in the series with adzuki bean (Dainagon) (adzuki bean, true leaf extraction stage, treated 14 days after sowing, 8 days after treatment, 0-100 scale, 4-(tert-butyl)benzoic acid 1000 g ai/ha in Examples, 0 in Comparative Examples, herbicide dose per label) of 35.

Take `O=C(Nc1ccc(F)cc1F)c1cccnc1Oc1cccc(C(F)(F)F)c1` [compound 26, Diflufenican]: in the series with soybean (Fukuyutaka) [8], the Phytotoxicity index is 30. Molecule `COc1cc(OC)nc(Oc2cccc(Oc3nc(OC)cc(OC)n3)c2C(=O)O)n1` [compound 19, Bispyribac-sodium] yielded a Phytotoxicity index with wheat (Brigadier) [7] (setting [9]) of 35.

Molecule `COC[C@H](C)N(C(=O)CCl)c1c(C)csc1C` [compound 25, Dimethenamide-P] came in with a Phytotoxicity index with soybean (Fukuyutaka) [8] of 15. `COC[C@H](C)N(C(=O)CCl)c1c(C)csc1C` [compound 31, Dimethenamide-P] registered a Phytotoxicity index in the series on beet (VIGIL) of 35.

With `O=C(Nc1ccc(F)cc1F)c1cccnc1Oc1cccc(C(F)(F)F)c1` [compound 22, Diflufenican], the Phytotoxicity index in the series with wheat (Brigadier) [7] (setting [9]) is reported as 15. Molecule `Cn1nc(C(F)(F)F)c(CS(=O)(=O)C2=NOC(C)(C)C2)c1OC(F)F` [compound 30] showed a Phytotoxicity index in the series on rapeseed (in vivo) of 40. `CCOC(=O)[C@@H](C)Oc1ccc(Oc2nc3ccc(Cl)cc3o2)cc1` [compound 18, Fenoxaprop-P-ethyl] gave a Phytotoxicity index in the series with wheat (Brigadier) [7] (setting [9]) of 40. `CC(C)C1(C)N=C(c2nc3ccccc3cc2C(=O)O)NC1=O` (stereo not shown) [compound 8, Imazaquin ammonium salt]: the Phytotoxicity index in the series with sorghum (Funk's Hybrid) is given as 45. For `O=C(Nc1ccc(F)cc1F)c1cccnc1Oc1cccc(C(F)(F)F)c1` [compound 17, Diflufenican], the Phytotoxicity index in series [3] was 35.

The record behind these values is patent US8318635B2, “Phytotoxicity controlling agent for upland farming and phytotoxicity controlling method using the same” (priority 2006, dated 2012).
